Drawing on patent publication US6610677B2, “Pyrazole compounds useful as protein kinase inhibitors” (Vertex Pharmaceuticals Incorporated, priority 2000, dated 2003), this text covers Ki for 26 compounds.

One assay has as its target T1, GSK-3β (AA 1-420) (Homo sapiens, UniProt P49841).
T1 construct: GSK-3β (AA 1-420)
As to the kind of experiment: Ki determination for the inhibition of GSK-3 (coupled enzyme system). Type of assay: biochemical. The conditions noted are these: 20 μM ATP, 300 μM peptide, 20 nM GSK-3β, 30° C. A digest of the protocol: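 Pyruvate kinase/lactate dehydrogenase-coupled NADH assay with 20 nM GSK-3β (AA 1-420), 20 μM ATP, 300 μM phosphopeptide HSSPHQS(PO3H2)EDEEE in HEPES pH 7.5, 1.5% DMSO, 30 °C. Compound (12 points, 0.002–30 μM) preincubated 10 min before ATP start; Ki derived from 10-min rates versus inhibitor concentration.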

Another assay deals with T2, Aurora-2 (Homo sapiens, UniProt O14965).
T2 sequence (O14965 1-403): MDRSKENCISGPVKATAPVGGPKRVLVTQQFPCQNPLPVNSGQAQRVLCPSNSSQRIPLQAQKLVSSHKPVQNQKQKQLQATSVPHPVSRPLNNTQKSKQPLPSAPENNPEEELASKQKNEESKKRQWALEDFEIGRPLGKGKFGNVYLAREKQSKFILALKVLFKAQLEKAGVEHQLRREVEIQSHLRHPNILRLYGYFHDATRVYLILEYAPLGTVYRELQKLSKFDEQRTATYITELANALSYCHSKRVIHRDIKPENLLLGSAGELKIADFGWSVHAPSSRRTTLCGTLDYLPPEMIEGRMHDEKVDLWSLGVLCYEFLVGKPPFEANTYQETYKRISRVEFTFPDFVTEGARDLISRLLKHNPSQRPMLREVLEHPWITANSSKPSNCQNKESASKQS
Briefly: Ki determination for the inhibition of Aurora-2 (coupled enzyme assay). The class given is biochemical. The conditions noted are these: 70 nM Aurora-2, peptide LRRASLG, 30° C. On the procedure: Compounds were screened in the following manner for their ability to inhibit Aurora-2 using a standard coupled enzyme assay (Fox et al (1998) Protein Sci 7, 2249).
To an assay stock buffer solution containing 0.1M HEPES 7.5, 10 mM MgCl2, 1 mM DTT, 25 mM NaCl, 2.5 mM phosphoenolpyruvate, […], 30 mg/ml pyruvate kinase, 10 mg/ml lactate dehydrogenase, […], and 800 μM peptide (LRRASLG, American Peptide, Sunnyvale, Calif.) was added a DMSO solution of a compound of the present invention to a final concentration of 30 μM. The resulting mixture was incubated at 30° C. for 10 min. The reaction was initiated by the addition of 10 μL of Aurora-2 stock solution to give a final concentration of 70 nM in the assay. The rates of reaction were obtained by monitoring absorbance at 340 nm over a 5 minute read time at 30° C. using a BioRad Ultramark plate reader (Hercules, Calif.). The Ki values were determined from the rate data as a function of inhibitor concentration.

T1 sequence (P49841 whole entry, the tested form may be a part): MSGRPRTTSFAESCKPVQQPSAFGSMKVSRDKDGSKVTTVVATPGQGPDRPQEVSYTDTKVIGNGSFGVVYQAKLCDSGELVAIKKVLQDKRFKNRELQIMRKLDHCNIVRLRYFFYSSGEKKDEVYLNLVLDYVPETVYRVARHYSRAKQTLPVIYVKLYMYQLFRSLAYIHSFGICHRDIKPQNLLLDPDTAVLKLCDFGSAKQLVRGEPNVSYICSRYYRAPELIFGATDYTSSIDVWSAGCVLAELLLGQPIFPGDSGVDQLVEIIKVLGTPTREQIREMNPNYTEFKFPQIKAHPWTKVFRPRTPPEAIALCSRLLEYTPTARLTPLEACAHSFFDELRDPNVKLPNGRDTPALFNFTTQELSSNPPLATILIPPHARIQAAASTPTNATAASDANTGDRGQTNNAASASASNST

`Fc1ccc2[nH]nc(Nc3nc(-c4ccccc4Cl)nc4ccccc34)c2c1` [II-75, [2-(2-Chloro-phenyl)-quinazolin-4-yl]-(5-fluoro-1H-indazol-3-yl)-amine]: the figures for the inhibition constant (Ki) at GSK-3β (AA 1-420) and at Aurora-2 were under 0.1 µM and 1 to 20 µM, respectively.
For `Fc1cc(F)c2[nH]nc(Nc3nc(-c4ccccc4Cl)nc4ccccc34)c2c1` [II-76, [2-(2-Chloro-phenyl)-quinazolin-4-yl]-(5,7-difluoro-1H-indazol-3-yl)-amine], in that order: under 0.1 µM and 1 to 20 µM.
On to `FC(F)(F)c1ccc2[nH]nc(Nc3nc(-c4ccccc4Cl)nc4ccccc34)c2c1` [II-77, [2-(2-Chloro-phenyl)-quinazolin-4-yl]-(5-trifluoromethyl-1H-indazol-3-yl)-amine], for which the figures for the Ki at GSK-3β (AA 1-420) and at Aurora-2 were under 0.1 µM and 0.1 to 1 µM, respectively.
The corresponding values for `N#Cc1ccccc1-c1nc(Nc2n[nH]c3ccccc23)c2ccccc2n1` [II-78, [2-(2-cyano-phenyl)-quinazolin-4-yl]-(1H-indazol-3-yl)-amine] are under 0.1 µM and 1 to 20 µM.
For `FC(F)(F)c1ccccc1-c1nc(Nc2n[nH]c3ccc(Br)cc23)c2ccccc2n1` [II-79, (5-Bromo-1H-indazol-3-yl)-[2-(2-trifluoromethyl-phenyl)-quinazolin-4-yl]-amine], in that order: under 0.1 µM and 0.1 to 1 µM.
In the case of `FC(F)(F)c1ccccc1-c1nc(Nc2n[nH]c3cc(Cl)ccc23)c2ccccc2n1` [II-80, (6-Chloro-1H-indazol-3-yl)-[2-(2-trifluoromethyl-phenyl)-quinazolin-4-yl]-amine], the inhibitory constant (Ki) was under 0.1 µM on GSK-3β (AA 1-420) and 1 to 20 µM at Aurora-2.
The corresponding values for `FC(F)(F)c1ccccc1-c1nc(Nc2n[nH]c3cc(Br)ccc23)c2ccccc2n1` [II-82, (6-Bromo-1H-indazol-3-yl)-[2-(2-trifluoromethyl-phenyl)-quinazolin-4-yl]-amine] are under 0.1 µM and 1 to 20 µM.
The corresponding values for `COc1cccc2c(Nc3n[nH]c4ccccc34)nc(-c3ccccc3C(F)(F)F)nc12` [II-90, (1H-Indazol-3-yl)-[8-methoxy-2-(2-trifluoromethyl-phenyl)-quinazolin-4-yl]-amine] are under 0.1 µM and 1 to 20 µM.
The corresponding values for `COc1cccc2c(Nc3n[nH]c4ccc(F)cc34)nc(-c3ccccc3C(F)(F)F)nc12` [II-91, (5-Fluoro-1H-indazol-3-yl)-[8-methoxy-2-(2-trifluoromethyl-phenyl)-quinazolin-4-yl]-amine] are under 0.1 µM and 1 to 20 µM.
Consider `COc1cccc2c(Nc3n[nH]c4c(F)cc(F)cc34)nc(-c3ccccc3C(F)(F)F)nc12` [II-93, (5,7-Difluoro-1H-indazol-3-yl)-[8-methoxy-2-(2-trifluoromethyl-phenyl)-quinazolin-4-yl]-amine], for which the inhibition constant (Ki) was under 0.1 µM on GSK-3β (AA 1-420) and 0.1 to 1 µM on Aurora-2.
For `Fc1cc(F)c2[nH]nc(Nc3nc(-c4cccnc4Cl)nc4ccccc34)c2c1` [II-94, [2-(2-Chloro-pyridin-3-yl)-quinazolin-4-yl]-(5,7-Difluoro-1H-indazol-3-yl)-amine], the results for the inhibition constant (Ki) on GSK-3β (AA 1-420) and on Aurora-2 were under 0.1 µM and 0.1 to 1 µM, respectively.
For `Nc1ccc(-c2nc(Nc3n[nH]c4c(F)cc(F)cc34)c3ccccc3n2)c(Cl)c1` [II-96, [2-(4-Amino-2-chloro-phenyl)-quinazolin-4-yl]-(5,7-Difluoro-1H-indazol-3-yl)-amine], in that order: under 0.1 µM and 1 to 20 µM.
As to `FC(F)(F)c1ccccc1-c1nc(Nc2n[nH]c3ncccc23)c2ccccc2n1` [II-99, (1H-Pyrazolo[3,4-b]pyridin-3-yl)-[2-(2-trifluoromethyl-phenyl)-quinazolin-4-yl]-amine], the Ki on GSK-3β (AA 1-420) is under 0.1 µM; at Aurora-2, 0.1 to 1 µM.
For `Cc1cc(Nc2cc(-c3ccccc3)n[nH]2)nc(-c2ccccc2OC(F)(F)F)n1` [II-103, [6-Methyl-2-(2-trifluoromethoxy-phenyl)-pyrimidin-4-yl]-(5-phenyl-2H-pyrazol-3-yl)-amine], in that order: 0.1 to 1 µM and 1 to 20 µM.
Turning to `Cc1cc(Nc2cc(-c3ccco3)n[nH]2)nc(-c2ccccc2OC(F)(F)F)n1` [II-104, (5-Furan-2-yl-2H-pyrazol-3-yl)-[6-methyl-2-(2-trifluoromethoxy-phenyl)-pyrimidin-4-yl]-amine], the results for the Ki at GSK-3β (AA 1-420) and at Aurora-2 were 0.1 to 1 µM and 1 to 20 µM, respectively.
For `CCc1cc(Nc2cc(C)n[nH]2)nc(-c2ccccc2OC(F)(F)F)n1` [II-105, [6-Ethyl-2-(2-trifluoromethoxy-phenyl)-pyrimidin-4-yl]-(5-methyl-2H-pyrazol-3-yl)-amine], the inhibitory constant (Ki) is under 0.1 µM at GSK-3β (AA 1-420) and 0.1 to 1 µM on Aurora-2.
On to `Fc1ccc2[nH]nc(Nc3nc(-c4ccccc4C(F)(F)F)nc4c3CCC4)c2c1` [II-107, (5-Fluoro-1H-indazol-3-yl)-[2-(2-trifluoromethyl-phenyl)-6,7-dihydro-5H-cyclopentapyrimidin-4-yl]-amine], for which the Ki on GSK-3β (AA 1-420) is under 0.1 µM; on Aurora-2, 1 to 20 µM.
The corresponding values for `c1ccc(-c2nc(Nc3n[nH]c4ccccc34)c3ccccc3n2)cc1` [III-1, (1H-Indazol-3-yl)-(2-phenyl-quinazolin-4-yl)-amine] are 0.1 to 1 µM and 0.1 to 1 µM.
Turning to `Cc1cc(Nc2nc(-c3ccccc3)nc3c2CCCC3)n[nH]1` [III-7, (5-Methyl-2H-pyrazol-3-yl)-(2-phenyl-5,6,7,8-tetrahydroquinazolin-4-yl)-amine], the Ki at GSK-3β (AA 1-420) and on Aurora-2 was under 0.1 µM each time.
Consider `Cc1cc(Nc2nc(-c3ccncc3)nc3ccccc23)n[nH]1` [III-9, (5-Methyl-2H-pyrazol-3-yl)-(2-pyridin-4-yl-quinazolin-4-yl)-amine], for which the inhibition constant Ki on GSK-3β (AA 1-420) and at Aurora-2 was under 0.1 µM throughout.
For `Cc1cc(Nc2nc(-c3ccncc3)nc3cc(Cl)ccc23)[nH]n1` [III-28, (7-Chloro-2-pyridin-4-yl-quinazolin-4-yl)-(5-methyl-2H-pyrazol-3-yl)-amine], the Ki at GSK-3β (AA 1-420) and on Aurora-2 was 0.1 to 1 µM each time.
On to `Cc1cc(Nc2nc(C3CCCCC3)nc3ccccc23)[nH]n1` [III-30, (2-Cyclohexyl-quinazolin-4-yl)-(5-methyl-2H-pyrazol-3-yl)-amine], for which the Ki at GSK-3β (AA 1-420) and on Aurora-2 was under 0.1 µM throughout.
As for `Clc1ccc(-c2nc(Nc3cc(C4CC4)n[nH]3)c3ccccc3n2)cc1Cl` [III-46, (5-Cyclopropyl-2H-pyrazol-3-yl)-[2-(3,4-dichlorophenyl)-quinazolin-4-yl]-amine], the Ki on GSK-3β (AA 1-420) and on Aurora-2 was under 0.1 µM each time.
With `Cc1cccc(-c2nc(Nc3cc(C)n[nH]3)c3ccccc3n2)c1` [III-50, [2-(3-Methylphenyl)-quinazolin-4-yl]-(5-methyl-2H-pyrazol-3-yl)-amine], the Ki at GSK-3β (AA 1-420) is 0.1 to 1 µM; on Aurora-2, under 0.1 µM.
Regarding `Cc1cc(Nc2nc(-c3cc(F)cc(F)c3)nc3ccccc23)[nH]n1` [III-51, [2-(3,5-Difluorophenyl)-quinazolin-4-yl]-(5-methyl-2H-pyrazol-3-yl)-amine], the Ki on GSK-3β (AA 1-420) and at Aurora-2 was under 0.1 µM in each case.
For `Cc1cc(Nc2nc(-c3ccc(F)c(Cl)c3)nc3ccccc23)[nH]n1` [III-52, [2-(3-Chloro-4-fluorophenyl)-quinazolin-4-yl]-(5-methyl-2H-pyrazol-3-yl)-amine], the Ki on GSK-3β (AA 1-420) and at Aurora-2 was under 0.1 µM in each case.

What is called Ki is a dissociation constant, usually derived from enzyme kinetics or from competition with a known ligand. Low values mean a stronger hold on the target, high ones a looser hold on the target.
